Where a name gives a salt, the structure may show the parent alone.
Experiment: Dynamic Vapour Sorption (DVS) moisture sorption isotherm
Type: physicochemical
Details: for total uptake of water vapours: DVS, 25° C., relative humidity 0% to 95% in steps of 5%, 1 h per step, sorption-desorption cycle
Description: Moisture sorption isotherms were measured using a DVS-1 system of Surface Measurement Systems (London, UK). Differences in moisture uptake of various forms of a solid material indicate differences in the relative stabilities of the various solid forms for increasing relative humidity. The experiment was carried out at a constant temperature of 25° C.
A sample of about 11.5 mg of form TDFA 2:1 was spread in the DVS pan. The sample was dried at 0% RH for 7 h. Subsequently the relative humidity of the chamber was increased in steps of 5% units from 0% to 95% in order to monitor the sorption of water vapours. The samples remained in each of the steps for 1 h. Following, desorption was monitored by decreasing the relative humidity to 0% in steps of 5% units and remaining at each step for 1 h. The total uptake of water vapours was about 0.8%, which is line with the industry standard for hygroscopicity. In a similar DVS experiment using the starting material as purchased, the total vapour intake was about 4%, which is undesirable in formulation and requires additional measures.

## CC(C)OC(=O)OCOP(=O)(CO[C@H](C)Cn1cnc2c(N)ncnc21)OCOC(=O)OC(C)C.CC(C)OC(=O)OCOP(=O)(CO[C@H](C)Cn1cnc2c(N)ncnc21)OCOC(=O)OC(C)C.O=C(O)/C=C/C(=O)O [TDFA 2:1, co-crystal of tenofovir disoproxil and fumaric acid in a 2:1 molar ratio]
  total uptake of water vapours: about 0.8%
Solid material measured by XRPD after the DVS sorption-desorption cycle (FIG. 4)
  changes in the structure by XRPD at the end of the DVS experiment: no any changes in the structure

## CC(C)OC(=O)OCOP(=O)(CO[C@H](C)Cn1cnc2c(N)ncnc21)OCOC(=O)OC(C)C [starting material, 9-[(R)-2-[[bis[[(isopropoxycarbonyl)oxy]methoxy]phosphinyl]-methoxy]propyl] adenine fumarate (1:1), reference compound]
  total uptake of water vapours: about 4%
